Where a name gives a salt, the structure may show the parent alone.
Assay: Pharmacokinetic evaluation in mice after intravenous and oral administration
Type: in vivo
Settings: mouse, plasma, male CD-1 mice
Procedure: CD-1 mice (male, Beijing Vital River Laboratory Animal Technology Co., Ltd.)
The pharmacokinetic characteristics of rodents after intravenous and oral administration of the compounds were tested using a standard protocol. In the experiment, the candidate compounds were prepared into clear solutions and administered to mice by single intravenous injection and oral administration. The intravenous and oral vehicles were mixed vehicles of 10% DMSO+90% (20% SBE-β-CD). This project included four male CD-1 mice, two of which were administered intravenously at a dosage of 1 mg/kg, and plasma samples were collected at 0.083 hours, 0.25 hours, 0.5 hours, 1 hour, 2 hours, 4 hours, 8 hours, and 24 hours after administration; the other two mice were orally administered by gavage at a dosage of 2 mg/kg, and plasma samples were collected at 0.25 hours, 0.5 hours, 1 hour, 2 hours, 4 hours, 8 hours, and 24 hours after administration. Blood samples were placed on ice after collection, and plasma was separated by centrifugation within 1 hour (centrifugation conditions: 6000 g, 3 minutes, 2-8° C.). Plasma samples were stored in a refrigerator at −80° C. before analysis. Plasma concentrations were quantitatively analyzed using LC-MS/MS analysis method, and pharmacokinetic parameters were calculated such as peak concentration (Cmax), clearance rate (CL), half-life (T1/2), […] (Vdss), area under concentration-time curve (AUC0-last), and bioavailability (F), etc.

Nc1cc2c(cn1)-c1ccc3c(=O)c(C(=O)O)cn(C4CC4)c3c1COC2 [Hydrochloride of Compound 7] showed a bioavailability (IV 1 mg/kg, oral gavage 2 mg/kg, read-out: Bioavailability F) of 132%, a Cmax (IV 1 mg/kg, oral gavage 2 mg/kg, route of Cmax not given, read-out: Peak concentration Cmax) of 683 nM and a clearance (IV 1 mg/kg, read-out: Clearance rate CL) of 132 mL/min/kg. For the same compound, the half-life (IV 1 mg/kg, read-out: Half-life T1/2 (IV) (converted)) was 20.5 min, the Vd (IV 1 mg/kg, read-out: Tissue distribution Vdss) was 3.04 L/kg and the AUC(0-t) (oral gavage 2 mg/kg, read-out: Area under concentration-time curve AUC0-last PO) was 0.924 µM·h.

Source: patent publication US20250042912A1, “NOVEL NON-FLUORINATED QUINOLONE COMPOUND AND USE THEREOF” (priority 2021, published 2025)
